The values below come from US20150045445A1, “3-KETO-N-PROPARGYL-1-AMINOINDAN” (TEVA PHARMACEUTICAL INDUSTRIES, LTD., priority 2009, published 2015).

Data set [1] in a line: Genotoxicity of the by-product. As to conditions: by-product of rasagiline drug substance production; no test described.
The conditions of data set [2]: AZILECT Product Label, May 2006; cited from earlier work.

Structures are written as SMILES.

As for `C#CCNC1CC(=O)c2ccccc21` (centres unmarked) [3-keto-N-propargyl-1-aminoindan], the genotoxicity result in data set [1] is “not genotoxic”.

With `C#CCN[C@@H]1CCc2ccccc21` [rasagiline, R(+)-N-propargyl-1-aminoindan], in data set [2], the absolute bioavailability result is given as “about 36%”.
